Laboratory results from patent US9216986B1, “Quinoline derivatives as PDE10A enzyme inhibitors” (H. Lundbeck A/S, priority 2011, dated 2015).
Where “and” joins values, the source holds several entries; their conditions need not be identical. Identical values can stand only once.

What follows are compounds tested against PDE10A enzyme (Homo sapiens (Human), UniProt Q9Y233) (assay: PDE10A inhibition assay). Conditions: tritium labeled cAMP 5 nM.
Sequence of PDE10A enzyme (Q9Y233 716-1055): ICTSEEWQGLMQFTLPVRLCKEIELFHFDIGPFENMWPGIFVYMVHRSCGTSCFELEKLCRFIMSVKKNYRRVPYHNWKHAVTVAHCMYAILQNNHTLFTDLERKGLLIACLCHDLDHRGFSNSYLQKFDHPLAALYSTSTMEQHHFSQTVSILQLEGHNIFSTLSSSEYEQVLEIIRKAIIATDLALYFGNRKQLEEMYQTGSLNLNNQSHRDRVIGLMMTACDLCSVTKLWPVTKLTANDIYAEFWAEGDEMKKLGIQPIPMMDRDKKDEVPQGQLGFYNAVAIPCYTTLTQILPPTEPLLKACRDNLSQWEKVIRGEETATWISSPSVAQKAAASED
Type: biochemical
Experimental: Active PDE10A enzyme is prepared in a number of ways for use in PDE assays (Loughney, K. et al. Gene 1999, 234, 109-117; Fujishige, K. et al. Eur J Biochem. 1999, 266, 1118-1127 and Soderling, S. et al. Proc. Natl. Acad. Sci. 1999, 96, 7071-7076). PDE10A can be expressed as full-length proteins or as truncated proteins, as long as they express the catalytic domain. PDE10A can be prepared in different cell types, for example insect cells or E. coli. An example of a method to obtain catalytically active PDE10A is as follows: The catalytic domain of human PDE10A (amino acids 440-779 from the sequence with accession number NP 006652) is amplified from total human brain total RNA by standard RT-PCR and is cloned into the BamH1 and Xho1 sites of the pET28a vector (Novagen). Expression in coli is performed according to standard protocols. Briefly, the expression plasmids are transformed into the BL21(DE3) E. coli strain, and 50 mL cultures inoculated with the cells allowed to grow to an OD600 of 0.4-0.6 before protein expression is induced with 0.5 mM IPTG. Following induction, the cells are incubated overnight at room temperature, after which the cells are collected by centrifugation. Cells expressing PDE10A are resuspended in 12 mL (50 mM TRIS-HCl-pH8.0, 1 mM MgCl2 and protease inhibitors). The cells are lysed by sonication, and after all cells are lysed, TritonX100 is added according to Novagen protocols.
A PDE10A assay may for example, be performed as follows: The assay is performed in 60 uL samples containing a fixed amount of the relevant PDE enzyme (sufficient to convert 20-25% of the cyclic nucleotide substrate), a buffer (50 mM HEPES7.6; 10 mM MgCl2; 0.02% Tween20), 0.1 mg/ml BSA, 225 pCi of ^3H-labelled cyclic nucleotide substrate, tritium labeled cAMP to a final concentration of 5 nM and varying amounts of inhibitors. Reactions are initiated by addition of the cyclic nucleotide substrate, and reactions are allowed to proceed for one hr at room temperature before being terminated through mixing with 15 uL 8 mg/mL yttrium silicate SPA beads (Amersham). The beads are allowed to settle for one hr in the dark before the plates are counted in a Wallac 1450 Microbeta counter. The measured signal can be converted to activity relative to an uninhibited control (100%) and IC50 values can be calculated using the XIfit extension to EXCEL.
In the case of COc1ccc2nc(CCc3nc4nc(C)cc(C)n4n3)ccc2c1 [2-[2-(5,7-Dimethyl-[1,2,4]triazolo[1,5-a]pyrimidin-2-yl)-ethyl]-6-methoxy-quinoline], the IC50 is reported as 170 nM. Cc1cc(C)n2nc(CCc3ccc4ccccc4n3)nc2n1 [2-[2-(5,7-Dimethyl-[1,2,4]triazolo[1,5-a]pyrimidin-2-yl)-ethyl]-quinoline] gave an IC50 of 72 nM. Cc1cc(C)n2cc(CCc3ccc4ccccc4n3)nc2n1 [2-[2-(5,7-Dimethyl-imidazo[1,2-a]pyrimidin-2-yl)-ethyl]-quinoline] gave an IC50 of 310 nM. Cc1ncc(C)n2nc(CCc3cc(F)c4ccccc4n3)nc12 [2-[2-(5,8-Dimethyl-[1,2,4]triazolo[1,5-a]pyrazin-2-yl)-ethyl]-4-fluoro-quinoline] gave an IC50 of 28 nM. COc1cc(CCc2nc3c(C)ncc(C)n3n2)nc2ccccc12 [2-[2-(5,8-Dimethyl-[1,2,4]triazolo[1,5-a]pyrazin-2-yl)-ethyl]-4-methoxy-quinoline] gave an IC50 of 12 nM. Compound Cc1cc(CCc2nc3c(C)ncc(C)n3n2)nc2ccccc12 [2-[2-(5,8-Dimethyl-[1,2,4]triazolo[1,5-a]pyrazin-2-yl)-ethyl]-4-methyl-quinoline] has an IC50 of 18 nM. Work on Cc1ncc(C)n2nc(CCc3ccc4c(F)c(F)cc(F)c4n3)nc12 [2-[2-(5,8-Dimethyl-[1,2,4]triazolo[1,5-a]pyrazin-2-yl)-ethyl]-5,6,8-trifluoro-quinoline] yielded an IC50 of 360 nM. Cc1ncc(C)n2nc(CCc3ccc4c(F)cc(F)cc4n3)nc12 [2-[2-(5,8-Dimethyl-[1,2,4]triazolo[1,5-a]pyrazin-2-yl)-ethyl]-5,7-difluoro-quinoline] gave an IC50 of 110 nM. Cc1ncc(C)n2nc(CCc3ccc4c(F)cccc4n3)nc12 [2-[2-(5,8-Dimethyl-[1,2,4]triazolo[1,5-a]pyrazin-2-yl)-ethyl]-5-fluoro-quinoline] showed an IC50 of 120 nM. Work on Cc1ncc(C)n2nc(CCc3ccc4cc(F)cc(F)c4n3)nc12 [2-[2-(5,8-Dimethyl-[1,2,4]triazolo[1,5-a]pyrazin-2-yl)-ethyl]-6,8-difluoro-quinoline] yielded an IC50 of 300 nM. For COc1cc(CCc2nc3c(C)ncc(C)n3n2)nc2ccc(F)cc12 [2-[2-(5,8-Dimethyl-[1,2,4]triazolo[1,5-a]pyrazin-2-yl)-ethyl]-6-fluoro-4-methoxy-quinoline], the IC50 was 14 nM. In the case of Cc1cc2nc(CCc3nc4c(C)ncc(C)n4n3)ccc2cc1F [2-[2-(5,8-Dimethyl-[1,2,4]triazolo[1,5-a]pyrazin-2-yl)-ethyl]-6-fluoro-7-methyl-quinoline], the IC50 is reported as 8.8 nM. Cc1cc(F)cc2ccc(CCc3nc4c(C)ncc(C)n4n3)nc12 [2-[2-(5,8-Dimethyl-[1,2,4]triazolo[1,5-a]pyrazin-2-yl)-ethyl]-6-fluoro-8-methyl-quinoline] showed an IC50 of 2000 nM. With Cc1ncc(C)n2nc(CCc3cc(O)c4cc(F)ccc4n3)nc12 [2-[2-(5,8-Dimethyl-[1,2,4]triazolo[1,5-a]pyrazin-2-yl)-ethyl]-6-fluoro-quinolin-4-ol] the IC50 was 410 nM. With Cc1ncc(C)n2nc(CCc3ccc4cc(F)ccc4n3)nc12 [2-[2-(5,8-Dimethyl-[1,2,4]triazolo[1,5-a]pyrazin-2-yl)-ethyl]-6-fluoro-quinoline] the IC50 was 24 nM and 26 nM. Work on COc1cc(CCc2nc3c(C)ncc(C)n3n2)nc2cc(F)ccc12 [2-[2-(5,8-Dimethyl-[1,2,4]triazolo[1,5-a]pyrazin-2-yl)-ethyl]-7-fluoro-4-methoxy-quinoline] yielded an IC50 of 26 nM. Cc1ncc(C)n2nc(CCc3cc(O)c4ccc(F)cc4n3)nc12 [2-[2-(5,8-Dimethyl-[1,2,4]triazolo[1,5-a]pyrazin-2-yl)-ethyl]-7-fluoro-quinolin-4-ol] was tested, and the IC50 was 500 nM. Cc1ncc(C)n2nc(CCc3ccc4ccc(F)cc4n3)nc12 [2-[2-(5,8-Dimethyl-[1,2,4]triazolo[1,5-a]pyrazin-2-yl)-ethyl]-7-fluoro-quinoline] was tested, and the IC50 was 15 nM. In the case of Cc1ncc(C)n2nc(CCc3ccc4ccc(C(F)(F)F)cc4n3)nc12 [2-[2-(5,8-Dimethyl-[1,2,4]triazolo[1,5-a]pyrazin-2-yl)-ethyl]-7-trifluoromethyl-quinoline], the IC50 is reported as 240 nM. Cc1ncc(C)n2nc(CCc3ccc4ccccc4n3)nc12 [2-[2-(5,8-Dimethyl-[1,2,4]triazolo[1,5-a]pyrazin-2-yl)-ethyl]-quinoline] was tested, and the IC50 was 19 nM. With Cc1ccc(C)n2nc(CCc3ccc4ccccc4n3)nc12 [2-[2-(5,8-Dimethyl-[1,2,4]triazolo[1,5-a]pyridin-2-yl)-ethyl]-quinoline] the IC50 was 24 nM. In the case of Cc1cnc(C)n2nc(CCc3ccc4cc(C(C)C)ccc4n3)nc12 [2-[2-(5,8-Dimethyl-[1,2,4]triazolo[1,5-c]pyrimidin-2-yl)-ethyl]-6-isopropyl-quinoline], the IC50 is reported as 61 nM. Cc1ccc(O)c2nc(CCc3ccc4cc(F)ccc4n3)nn12 [2-[2-(6-Fluoro-quinolin-2-yl)-ethyl]-5-methyl-[1,2,4]triazolo[1,5-a]pyridin-8-ol] showed an IC50 of 85 nM. Work on CCc1ccc(C)n2nc(CCc3ccc4cc(F)ccc4n3)nc12 [2-[2-(8-Ethyl-5-methyl-[1,2,4]triazolo[1,5-a]pyridin-2-yl)-ethyl]-6-fluoro-quinoline] yielded an IC50 of 25 nM. In the case of COc1ccc(C)n2nc(CCc3cc(C)c4ccccc4n3)nc12 [2-[2-(8-Methoxy-5-methyl-[1,2,4]triazolo[1,5-a]pyridin-2-yl)-ethyl]-4-methyl-quinoline], the IC50 is reported as 42 nM. Compound COc1ccc(C)n2nc(CCc3ccc4ccccc4n3)nc12 [2-[2-(8-Methoxy-5-methyl-[1,2,4]triazolo[1,5-a]pyridin-2-yl)-ethyl]-quinoline] has an IC50 of 12 nM. For Cc1cc(C)n2cc(/C=C/c3ccc4ccccc4n3)nc2n1 [2-[(E)-2-(5,7-Dimethyl-imidazo[1,2-a]pyrimidin-2-yl)-vinyl]-quinoline], the IC50 was 320 nM. Compound COc1cccc2nc(/C=C/c3nc4c(C)ncc(C)n4n3)ccc12 [2-[(E)-2-(5,8-Dimethyl-[1,2,4]triazolo[1,5-a]pyrazin-2-yl)-vinyl]-5-methoxy-quinoline] has an IC50 of 19 nM. Compound Cc1ncc(C)n2nc(/C=C/c3ccc4cc(C#N)ccc4n3)nc12 [2-[(E)-2-(5,8-Dimethyl-[1,2,4]triazolo[1,5-a]pyrazin-2-yl)-vinyl]-6-cyano-quinoline] has an IC50 of 2100 nM. For Cc1ncc(C)n2nc(/C=C/c3ccc4cc(F)ccc4n3)nc12 [2-[(E)-2-(5,8-Dimethyl-[1,2,4]triazolo[1,5-a]pyrazin-2-yl)-vinyl]-6-fluoro-quinoline], the IC50 was 190 nM. Cc1ncc(C)n2nc(/C=C/c3ccc4cc(OC(F)(F)F)ccc4n3)nc12 [2-[(E)-2-(5,8-Dimethyl-[1,2,4]triazolo[1,5-a]pyrazin-2-yl)-vinyl]-6-trifluoromethoxy-quinoline] gave an IC50 of 2800 nM. Cc1ncc(C)n2nc(/C=C/c3ccc4cc(C(F)(F)F)ccc4n3)nc12 [2-[(E)-2-(5,8-Dimethyl-[1,2,4]triazolo[1,5-a]pyrazin-2-yl)-vinyl]-6-trifluoromethyl-quinoline] gave an IC50 of 490 nM. Compound COc1ccc2ccc(/C=C/c3nc4c(C)ncc(C)n4n3)nc2c1 [2-[(E)-2-(5,8-Dimethyl-[1,2,4]triazolo[1,5-a]pyrazin-2-yl)-vinyl]-7-methoxy-quinoline] has an IC50 of 13 nM. Cc1ncc(C)n2nc(/C=C/c3ccc4ccc(C(F)(F)F)cc4n3)nc12 [2-[(E)-2-(5,8-Dimethyl-[1,2,4]triazolo[1,5-a]pyrazin-2-yl)-vinyl]-7-trifluoromethyl-quinoline] showed an IC50 of 550 nM.
